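Values below derive from 48-hour exposures of cells grown in 96-well plates, with endpoints linearly interpolated between the two concentrations bracketing the appropriate inhibition level. Abbreviation: GI50, concentration required for 50% inhibition of growth. TGI denotes the concentration required for complete inhibition of growth.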
Legend:
Experiment in all cases: inhibition of tumour cell growth, NCI panel, 48 h
DU-145 prostate = tested on: DU-145 prostate
MDA-MB-231 breast = tested on: MDA-MB-231 breast
BT-549 breast = tested on: BT-549 breast
PC-3 prostate = tested on: PC-3 prostate
DMS 114 small cell lung = tested on: DMS 114 small cell lung
DMS 273 small cell lung = tested on: DMS 273 small cell lung
SNB-78 CNS = tested on: SNB-78 CNS
DLD-1 colon = tested on: DLD-1 colon
LXFL 529 NSCLC = tested on: LXFL 529 NSCLC
XF 498 CNS = tested on: XF 498 CNS

Structure (SMILES) | TGI (DU-145 prostate) [µM] | TGI (MDA-MB-231 breast) [µM] | TGI (BT-549 breast) [µM] | TGI (PC-3 prostate) [µM] | GI50 (DU-145 prostate) [µM] | GI50 (MDA-MB-231 breast) [µM] | GI50 (BT-549 breast) [µM] | GI50 (PC-3 prostate) [µM] | TGI (DMS 114 small cell lung) [µM] | TGI (DMS 273 small cell lung) [µM] | TGI (DLD-1 colon) [µM] | TGI (LXFL 529 NSCLC) [µM] | further results
NNc1ncnc2cccc(Cl)c12 | > 100 | > 100 | > 100 | > 100 | – | – | – | – | – | – | – | – | –
Cn1cc(-c2ccc3nnc(C(F)(F)c4ccc5ncccc5c4)n3n2)cn1 | > 100 | > 100 | > 100 | > 100 | 53.9 | 34.2 | 86.8 | 85 | – | – | – | – | –
C[C@H]1CCC2C(CN3CCCCC3)C(=O)OC2[C@]2(C)C(=O)CC(N3CCCCC3)C12O (some centres not stated) | – | – | – | – | – | – | – | – | 13.1 | 23.4 | 16 | – | TGI (SNB-78 CNS): > 100 µM
O=C1CCCCCCCCCCOC(=O)CCCCCCCCCCO1 | – | – | – | – | – | – | – | – | > 100 | > 100 | > 100 | > 100 | TGI (SNB-78 CNS): > 100 µM
CC(C)(N)C(=O)N[C@@H]1C(=O)N2[C@@H]1SC(C)(C)[C@@H]2C(=O)O | > 100 | > 100 | > 100 | > 100 | – | – | – | – | – | – | – | – | –
CSc1nc(SC)c2c(C)cn(C3OC(C)C(O)C(O)C3O)c2n1 (configuration not stated) | > 100 | > 100 | > 100 | > 100 | – | – | – | – | – | – | – | – | –
NC(CSC1(c2ccc(Cl)cc2)c2ccccc2-c2ccccc21)C(=O)O (configuration not stated) | > 100 | 35.7 | 34.6 | 43.5 | – | – | – | – | – | – | – | – | –
Cn1c(=O)c(-c2c(Cl)cccc2Cl)cc2cnc(Nc3ccc(I)cc3)nc21 | 0.139 | 1.29 | 0.445 | > 100 | < 0.01 | 0.259 | 0.0389 | < 0.012 | – | – | – | – | –
Cc1cc2nc3c4cc([N+](=O)[O-])ccc4n(CCN(C)C)c3nc2cc1C | > 27.8 | > 32.7 | 5.85 | 10.7 | 0.71 | 0.602 | 2 | 0.548 | – | – | – | – | –
[Au+].c1c[n-]cn1.c1ccc([PH+](c2ccccc2)c2ccccc2)cc1 | 36.5 | – | > 100 | 17.3 | 17.2 | – | 3.29 | 4.28 | 1.91 | > 44 | – | 2.95 | GI50 (DMS 114 small cell lung): 0.668 µM; GI50 (DMS 273 small cell lung): 7.87 µM; GI50 (SNB-78 CNS): 7.57 µM; TGI (SNB-78 CNS): > 45.2 µM; GI50 (LXFL 529 NSCLC): 1.59 µM
Cc1ccc(S(=O)(=O)OC2CSSCC2OS(=O)(=O)c2ccc(C)cc2)cc1 (configuration not stated) | – | – | – | – | – | – | – | – | 26.4 | 21.8 | 24.7 | 23.6 | TGI (SNB-78 CNS): 37 µM
O=C(O)c1ccccc1C1c2ccc(Cl)cc2Oc2cc(Cl)ccc21 | – | – | – | – | – | – | – | – | > 100 | > 100 | > 100 | > 100 | –
NCCCCCCCCCn1c2c(c3ccccc3c1=O)C(=O)c1ccccc1-2 | 15.9 | 11.1 | 18.9 | 29.2 | 5.98 | 1.13 | 9.26 | 10.6 | – | – | – | – | –
C=C1CCC2(C(C)=O)COC1(C)O2 (configuration not stated) | – | – | – | – | – | – | – | – | > 100 | > 100 | > 100 | – | TGI (XF 498 CNS): > 100 µM
COc1c(OC)c(OC)c(-c2cc(=O)c3c(OC)c(OC)c(OC)c(OC)c3o2)c(OC)c1OC | > 100 | > 100 | > 100 | – | – | – | – | – | – | – | – | – | –
O=[N+]([O-])c1cccc([I+]c2ccccc2)c1 | 24.3 | 33.6 | 23.1 | 26.1 | 11.1 | 14.8 | 10.5 | 7.78 | – | – | – | – | –
COc1cc(=O)oc(/C=C/CO)c1C | – | – | – | – | – | – | – | – | > 100 | > 100 | > 100 | > 100 | TGI (XF 498 CNS): > 100 µM
COc1cc2oc(-c3ccc(O)cc3)cc(=O)c2c(OC)c1O | > 100 | > 100 | > 100 | – | – | – | – | – | – | – | – | – | –
O=C(NCCCl)NCc1ccccc1 | > 100 | > 100 | – | > 100 | – | – | – | – | – | – | – | – | –
CN(CC1NCCCC1O)C12CC3CC(CC(C3)C1)C2 (configuration not stated) | – | – | – | – | – | – | – | – | > 100 | > 100 | > 100 | > 100 | TGI (XF 498 CNS): > 100 µM
Cc1cc2c(C)nn(Cc3ccccc3Cl)c2c(C#N)c1C | – | – | – | – | – | – | – | – | – | > 100 | > 100 | > 100 | TGI (XF 498 CNS): > 100 µM
COc1cc(/C=C2\CC3C4CCC5=CC(=O)CC[C@]5(C)C4CC[C@]3(C)C2=O)ccc1OCCN1CCCCC1 (some centres not stated) | 8.33 | 5.03 | 23.3 | 12.8 | 2.06 | 1.85 | 6.19 | 2.33 | – | – | – | – | –
Cc1nc(-n2nc(-c3ccccc3)cc2-c2ccccc2)sc1C(/C=C/c1ccc([N+](=O)[O-])cc1)=N/NC(N)=S | – | – | – | – | – | – | – | – | 73.5 | – | > 100 | > 100 | TGI (SNB-78 CNS): 56.7 µM
CCCCCCn1c2c(c3c(O)cccc31)C(=O)c1ccccc1-2 | 29.7 | 33.4 | 33.9 | 36.6 | 15.7 | 16.3 | 16.4 | 19.6 | – | – | – | – | –
Oc1[nH]c2ccccc2c1/C=c1/ccc2c(c1)N=C(c1cc(F)cc(F)c1)N=2 | 22.2 | 19.5 | 12.1 | 16.7 | 10.2 | 3.63 | 2.13 | 3.37 | – | – | – | – | –
Cn1c2c(c3ccccc31)CCN(CCCN1CCN(c3ccccc3)CC1)C2=O | – | – | – | – | – | – | – | – | 38.1 | 52.4 | 46.6 | 36.3 | TGI (XF 498 CNS): 27.8 µM
CSCC(COC(C)=O)(CSC)c1ccncc1 | – | – | – | – | – | – | – | – | > 100 | > 100 | – | > 100 | TGI (SNB-78 CNS): > 100 µM
CC/C(=C(/CC)c1ccc(O)cc1)c1ccc(O)cc1 | 22.4 | 25.2 | 21.5 | 50.9 | 10 | 10 | 6.16 | 5.75 | – | – | – | – | –
CC(=O)Nc1ccc(Cc2ccc3[nH]c(=O)cc(C)c3c2)cc1 | > 100 | > 100 | > 100 | > 100 | – | – | – | – | – | – | – | – | –
COc1ccc(Nc2ncccc2C(=O)NCc2cn(Cc3cccc(Oc4ccccc4)c3)nn2)c(OC)c1 | > 81.5 | > 28.1 | > 100 | > 100 | 3.52 | 3.63 | 2.99 | 1.36 | – | – | – | – | –
